# Results reported in patent publication US9944597B2, “Polysubstituted pyrroles having microtubule-disrupting, cytotoxic and antitumor activities and methods of use thereof” (THE BOARD OF REGENTS OF THE UNIVERSITY OF TEXAS SYSTEM, priority 2013, dated 2018).
# Read-outs that look alike come from different tables or passages of the source.
# Tests used:
# [1] = system: MDA-MB-435 (human melanoma cancer cells); experiment: Antiproliferative SRB assay, MDA-MB-435; type: cell-based; conditions: Homo sapiens, MDA-MB-435, read-out: MDA-MB-435 Anti-Proliferative Activity, IC50
# Experimental: (§1) Cell Culture. Various representative cancer and other cell lines were sourced and grown as described previously [Mooberry, S. L., et al., Mol. Pharm. 72, 132-140 (2007)]. MDA-MB-435 (human melanoma cancer cells), and MDA-MB-231 (human breast cancer cells) were grown in IMEM Richter's Medium (Life Technologies, Grand Island, N.Y.) with 10% FBS (Hyclone, Logan, Utah) and 25 μg/mL gentamicin sulfate (Life Technologies). A-10 (embryonic rat vascular smooth muscle cells) and HeLa (human cervical cancer cells), SK-OV-3 (human ovarian cancer cells) and SK-OV-3-MDR-1-M6/6 (a clone of the SK-OV-3 that was generated from SK-OV-3 cells by adenovirus-mediated expression of MDR1) were grown in Basal Medium Eagle (BME, Sigma-Aldrich, St. Louis, Mo.) containing Earle's salts, 50 μg/ml gentamicin sulfate, and 10% FBS. HeLa cells (a single-cell clone derived from transduction of HeLa cells with wild-type (WT) βIII-tubulin) were grown in Dulbecco's Modified Eagle's Medium (DMEM, Life Technologies) containing 50 μg/mL gentamicin sulfate and 10% FBS.
# (§2) Antiproliferative Effects. The pyrrole compounds were evaluated for their antiproliferative effects in a panel of cancer cell lines. Cells were plated into 96-well plates at predetermined densities and allowed to attach and proliferate for 24 hr, and then the compounds were added. After a 48 hr exposure to the compounds, the cells were fixed with trichloroacetic acid and cellular protein was determined using the sulforhodamine B (SRB) assay (Skehan et al., J. Natl. Cancer Inst. 82, 1107-12, (1990); Boyd and Paull Drug Devel. Res. 34, 91-109, (1995)). Concentration response curves were constructed, and the IC50 (the concentration required to inhibit proliferation by 50%) values were determined from the linear portions of the log concentration-response curves as described previously [Tinley, T. L., et al., Cancer Res. 63, 3211-3220, (2003)] as shown in Table 48.
# [2] = system: HeLa (human cervical cancer cells); experiment: Antiproliferative SRB assay, HeLa; type: cell-based; conditions: Homo sapiens, HeLa
# Experimental: as §1, §2
# (§3) First, drug resistance mediated by the expression of βIII tubulin was evaluated in an isogenic HeLa cell line pair. Expression of the βIII tubulin isotype is associated with clinical drug resistance to the taxanes in ovarian cancer, non small-cell lung cancer and breast cancer [Galmarini, C. M., et al., Clin. Cancer Res. 14, 4511-4516 (2008)]. Secondly, drug resistance mediated by the expression of the drug efflux pump protein, Pgp, was evaluated in the isogenic SK-OV-3 cell line pair. The expression of Pgp can lead to lower intracellular drug concentrations and diminished cytotoxic effects both in vitro and in vivo. All tubulin-binding anticancer drugs used currently in the clinic, except cabazitaxel, are substrates for Pgp, thus limiting their utility in drug resistant tumors [Penson, R. T., et al., Gynecol. Oncol. 93, 98-106 (2004)]. Differences in sensitivity between the parent and transformed cell line, indicative of resistance, was determined by calculating relative resistance (Rr) values in the two pairs of isogenic cell lines (dividing the IC50 of the expressing cell line by the IC50 of the parental cell line).
# [3] = system: SK-OV-3 (human ovarian cancer cells); experiment: Antiproliferative SRB assay, SK-OV-3; type: cell-based; conditions: Homo sapiens
# Experimental: as §1, §2
# as §3, with “The expression of Pgp can lead to lower intracellular drug concentrations and diminished cytotoxic effects both in vitro and in vivo.” left out
# HeLa WT-β-III cells = experiment: Antiproliferative SRB assay, βIII-tubulin expressing HeLa; type: cell-based, human; conditions: for IC50: Homo sapiens, HeLa, Table 49, βIII tubulin expressing line, 48 hr, SRB assay; for Rr (β-III): relative resistance: IC50 of expressing line divided by IC50 of parental HeLa
# Experimental: as §1, §2, §3
# SK-OV-3-MDR-1-6/6 cells = experiment: Antiproliferative SRB assay, Pgp expressing SK-OV-3; type: cell-based, human; conditions: for IC50: Homo sapiens, SK-OV-3, Table 49, Pgp expressing line, 48 hr, SRB assay; for Rr (Pgp): relative resistance: IC50 of expressing line divided by IC50 of parental SK-OV-3
# Experimental: as §1, §2
# as §3, with “The expression of Pgp can lead to lower intracellular drug concentrations and diminished cytotoxic effects both in vitro and in vivo.” left out
# A-10 cells = experiment: Cellular microtubule loss by indirect immunofluorescence; type: cell-based, rat; conditions: Rattus norvegicus, A10; Table 50; concentration causing approximately 50% loss of interphase microtubules; read-out: EC50 Values (nM) for Microtubule Loss in A-10 cells
# Experimental: The effects of representative compounds on cellular microtubules were evaluated in A-10 (embryonic rat vascular smooth muscle cell line) cells using indirect immunofluorescence techniques as previously described (Tinley et al., Cancer Res. 63, 3211-20 (2003)). Cells were visualized using a Nikon Eclipse 80i fluorescence microscope and NIS Elements software. Changes in both interphase and mitotic microtubules were noted and photographed. The EC50 values, the concentration that causes approximately 50% loss of interphase microtubules was determined by evaluating a range of concentrations of each compound and the percent cellular microtubule depolymerization that was observed visually at each concentration was noted.
# Microtubules were visualized by indirect immunofluorescence using a β-tubulin antibody, and the DNA was visualized with DAPI. A representative concentration response curve for NT-7-16 is also shown in FIG. 1 that was used to calculate its corresponding EC50 for microtubule loss. Concentration response curves for microtubule loss were plotted using data from at least three experiments for each compound and the corresponding EC50 values for microtubule loss are presented in Table 50.
# [4] = Table 48, 48 hr exposure, SRB assay
# [5] = Table 48, 48 hr exposure, read-out: HeLa Anti-Proliferative Activity, IC50
# [6] = Table 49, parental line, 48 hr, read-out: HeLa IC50
# [7] = SK-OV-3, Table 48, 48 hr exposure, read-out: SK-OV-3 Anti-Proliferative Activity, IC50
# [8] = SK-OV-3, Table 49, parental line, 48 hr, read-out: SK-OV-3 IC50
SMILES,"IC50 [1, 4]",IC50 ([1]; Table 52),"IC50 [2, 5]","IC50 [2, 6]","IC50 [3, 7]","IC50 [3, 8]",IC50 (HeLa WT-β-III cells),Rr (β-III) (HeLa WT-β-III cells),IC50 (SK-OV-3-MDR-1-6/6 cells),Rr (Pgp) (SK-OV-3-MDR-1-6/6 cells),EC50 (A-10 cells),melting point
"CCOC(=O)c1[nH]c(CN)c(-c2ccc(OC)c(OC)c2OC)c1Br [Example 13, 5-(Aminomethylene)-3-Bromo-4-(2,3,4-trimethoxyphenyl)-1H-pyrrole 2-carboxylic acid ethyl ester]",15.8 ± 0.9 nM,15.8 ± 0.9 nM,19.5 ± 0.6 nM,19.5 ± 0.6 nM,23.1 ± 1.8 nM,23.1 ± 1.8 nM,15.6 ± 0.4 nM,0.8,22.4 ± 0.9 nM,1.0,36 nM,176 to 178 °C
"CCOC(=O)c1[nH]c(C=O)c(-c2ccc(OC)c(OC)c2OC)c1I [Example 4, 3-Iodo-4-(2,3,4-trimethoxyphenyl)-5-formyl-1H-pyrrole 2-carboxylic acid ethyl ester]",76 ± 0.6 nM,76 ± 0.6 nM,39.9 ± 3.1 nM,39.9 ± 3.1 nM,66.9 ± 5.8 nM,66.9 ± 5.8 nM,100 ± 2 nM,2.5,87 ± 23.6 nM,1.3,129 nM,126 to 128 °C
"CCOC(=O)c1[nH]c(Cl)c(-c2ccc(OC)c(OC)c2OC)c1Cl [Example 23, 3,5-Dichloro-4-(2,3,4-Trimethoxyphenyl)-1H-pyrrole-2-carboxylic acid ethyl ester]",116 ± 4.3 nM,,131 ± 8 nM,131 ± 8 nM,211 nM,211 nM,137 nM,1.0,231 ± 118 nM,1.1,1060 nM,151 to 153 °C
CCOC(=O)c1[nH]c(CN)c(-c2ccc(OC)c(OC)c2OC)c1Cl [Example 14],13 ± 0.4 nM,13 ± 0.4 nM,15 ± 0.5 nM,15 ± 0.5 nM,27.8 ± 1.3 nM,27.8 ± 1.3 nM,12.3 ± 0.3 nM,0.8,23.6 ± 1 nM,0.8,35 nM,143 to 145 °C
"CCOC(=O)c1[nH]c(C=NO)c(-c2ccc(OC)c(OC)c2OC)c1Cl (mixture of isomers) [Example 21, Cis/Trans-3-chloro-4-(2,3,4-trimethoxyphenyl)-5-oximino-1H-pyrrole 2-carboxylic acid ethyl ester]",87.7 ± 10 nM,87.7 ± 10 nM,123 ± 6.5 nM,123 ± 6.5 nM,175 ± 30.4 nM,175 ± 30.4 nM,109 ± 9.5 nM,0.9,419 ± 30.4 nM,1.9,170 nM,135 to 140 °C
"CCCNC=C1NC(C(=O)OCC)C(Br)=C1c1ccc(OC)c(OC)c1OC (centres unmarked) [Example 17, 3-Bromo-5-(N-Propylaminomethylene)-4-(2,3,4-trimethoxyphenyl)-1H-pyrrole 2-carboxylic acid ethyl ester]",2630 nM,2630 nM,2450 nM,2450 nM,3020 nM,3020 nM,2010 nM,0.8,3570 nM,1.2,4900 nM,143 to 145 °C
"CCCNC=C1NC(C(=O)OCC)C(Cl)=C1c1ccc(OC)c(OC)c1OC (centres unmarked) [Example 18, 3-Chloro-5-(N-Propylaminomethylene)-4-(2,3,4-Trimethoxyphenyl)-1H-pyrrole 2-carboxylic acid ethyl ester]",12.6 ± 0.4 nM,12.6 ± 0.4 nM,14.3 ± 0.8 nM,14.3 ± 0.8 nM,20.7 ± 1.9 nM,20.7 ± 1.9 nM,11.2 ± 0.4 nM,0.8,19 ± 1 nM,0.9,31 nM,166 to 168 °C
"CCOC(=O)c1[nH]c(C(=O)O)c(-c2ccc(OC)c(OC)c2OC)c1Br [Example 9, 3-Bromo-4-(2,3,4-trimethoxyphenyl)-5-carboxy-1H-pyrrole 2-carboxylic acid ethyl ester]",1530 nM,1530 nM,2340 nM,2340 nM,,,,,,,4600 nM,173 to 175 °C
